Source: patent publication US7196110B2, “N-substituted tricyclic 3-aminopyrazoles as inhibitors for the treatment of cell proliferative disorders” (Janssen Phamaceutica N.V., priority 2002, dated 2007)

Key:
[1] = system: human chronic myelogenous leukemia (CML) K562 cell line; assay: Flow cytometry cell cycle phase distribution in leukemia cells; assay type: cell-based; conditions: K562, 24 hours
Procedure: (§1) The effect of compounds of the invention on cell proliferation in leukemia cells, in particular, the human chronic myelogenous leukemia (CML) K562 cell line, was tested using flow cytometry and trypan blue exclusion cell counting assays.
(§2) The human chronic myelogenous leukemia (CML) K562 cell line was obtained from American Type Culture Collection (ATCC) and cultured under specified conditions, as provided by ATCC. A Becton Dickinson FACSCalibur instrument was used for flow cytometry analyses. A CycleTEST PLUS DNA Reagent Kit (Cat. No. 340242, Becton Dickinson) was used in the study for cell staining. The standard operating procedure and a protocol for CycleTEST PLUS DNA Reagent Kit from Becton Dickinson have been followed to carry out the study. Briefly, flow cytometric analysis of the differentially stained CML K562 cell line was used to estimate the DNA content and cell cycle phase distribution of cells treated with various concentrations of the compound for 24 hours. […] Data analysis was carried out using the ModFit LT cell cycle data analysis program (Verity Software House, Topsham, Me. 04086, www.vsh.com). Cell viability test was performed using a Trypan Blue exclusion assay (Trypan Blue from Sigma, Cat No. T 0776) following procedures known to those skilled in the art.

[2] = system: Human tumor cell lines (LoVo, MDA-MB-231, H460 etc.); assay: Anti-tumor assay, human tumor nude mouse xenograft model; assay type: in vivo, athymic nude mice; conditions: 50 mg/kg
Procedure: The anti-tumor activity of experimental compounds was evaluated in vivo using the human tumor nude mouse xenograft model. All procedures involving animals were conducted in an animal facility fully accredited by the American Association for Assessment and Accreditation of Laboratory Animal Care (AAALAC) and in accordance with The Guide for the Care and Use of Laboratory Animals (NIH). Protocols were approved by the RWJ-PRI Internal Animal Care and Use Committee (IACUC).
Human tumor cell lines (LoVo, MDA-MB-231, H460 etc.) were obtained from American Type Culture Collection and cultured under specified conditions required for each cell type. Female athymic nude mice (Charles River nu/nu) were injected subcutaneously in the inguinal region of the thigh with 1–2×10^6 tumor cells in 0.1 mL volume on day zero. For growth delay studies, mice were dosed orally with vehicle (control group) or experimental drugs beginning three days after tumor cell inoculation. Compounds were prepared in 0.5% methylcellulose and treatments were administered bid for 30–35 consecutive days. Tumor growth was measured twice a week using calipers for the duration of the treatment. Tumor areas (mm^2) were calculated as a product of length×width. […] Differences between treated and control mice were analyzed statistically by ANOVA and Dunnett's t-test. […]

[3] = system: human chronic myelogenous leukemia (CML) K562 cell line; assay: Trypan blue exclusion cell counting assay in leukemia cells; assay type: cell-based
Procedure: as §1, §2

[4] = system: MDAH2774 (ovarian cancer); assay: Clonogenicity assay, compound in combination with irradiation, MDAH2774; assay type: cell-based, human
Procedure: Radiotherapy is a major therapeutic modality in treating many types of cancers including human prostate and ovarian cancers. The anti-proliferative activity of compounds within the scope of the invention was tested in combination with irradiation treatment.
Cells DU145 (prostate cancer) and MDAH2774 (ovarian cancer) were obtained from ATCC; growth media MEM medium (Mediatech, Herndon, Va.) was supplemented with 8% FBS, 5 U/ml penicillin and 50 μg/ml Streptomycin (Hyclone, Logan, Utah), 2 mM L-glutamine (Hyclone, Logan, Utah), 25 mM HEPES (Hyclone, Logan, Utah); McCoy's 5A medium (Mediatech, Herndon, Va.) was supplemented with 8% FBS, 50 U/ml penicillin and 50 μg/ml-Strep (Hyclone, Logan, Utah) and Glutamine 2 mM L-glutamine (Hyclone, Logan, Utah), ^137CS γ-source was a Gammacell 1000 Elite irradiator (MDS Nordion, Kanata, Ontario, Canada); DMSO; 1× PBS; Methanol; 0.25% Crystal Violet, and 60 mm tissue culture dishes.
DU145 or MDAH2774 cells at desired cell number were plated in early log phase on 60 mm dishes in MEM medium supplemented with 8% FBS, Penicillin, Streptomycin, L-glutamine, or McCoys medium supplemented with 8% FBS, Penicillin, Streptomycin and Glutamine, respectively. Cells were plated in triplicate. […] The final concentrations of the compound in the cell media ranged from 1 to 100 nM. After 24 h incubation with the test compound plates were split in two groups of equal size. The plates in the first group were irradiated with 7.3 Gy (plates containing DU145 cells) or 5.4 Gy (plates containing MDAH2774 cells) using a ^137Cs γ-source (dose rate 3.32 Gy/min). The second group of plates were treated identically but not irradiated. Cells were incubated for an additional 24 hours in medium containing test compound. Then, the cells were replenished with fresh compound-free identical medium and allowed to grow for an additional 11 days. Cells were then fixed with methanol, stained with 0.25% crystal violet, and the clones containing more than 50 cells were counted.
The activity appeared to be concentration-dependent with more dramatic effects achieved at 100 nM compound with radiation in either cell line.

[5] = Rat pharmacokinetics study of pro-drugs, conversion to parent monitored by HPLC/MS/MS; assay type: in vivo; conditions: po, rat plasma, 10 mg/kg orally, read-out: Fast PK (0.5 h) conc. Prodrug
Procedure: Furthermore, pro-drugs have been administered orally to rats (10 mg/kg) in pharmacokinetics studies, and the conversion of pro-drugs to the parent compound was montitored by HPLC/MS/MS analyses. Parent compound or the glucuronide conjugates of the parent compound was detected in the rat plasma from the pharmacokinetics studies (Table G).

COc1cc2c(cc1OC)-c1n[nH]c(Nc3cccc(F)c3)c1C2 [Compound 14, (3-Fluoro-phenyl)-(6,7-dimethoxy-2,4-dihydro-indeno[1,2-c]pyrazol-3-yl)-amine]
Percent of cells at G0–G1 ([1]; compound conc. 1 nM): 35% | Percent of cells at G2/M ([1]; compound conc. 1 nM): 11% | Percent of cells at S phase ([1]; compound conc. 1 nM): 53% | Percent of cells at G0–G1 ([1]; compound conc. 10 nM): 31% | Percent of cells at G2/M ([1]; compound conc. 10 nM): 28% | Percent of cells at S phase ([1]; compound conc. 10 nM): 41% | Percent of cells at G0–G1 ([1]; compound conc. 100 nM): 2% | Percent of cells at G2/M ([1]; compound conc. 100 nM): 98% | Percent of cells at S phase ([1]; compound conc. 100 nM): 0% | Percent of cells at G0–G1 ([1]; compound conc. 1000 nM): 3% | Percent of cells at G2/M ([1]; compound conc. 1000 nM): 93% | Percent of cells at S phase ([1]; compound conc. 1000 nM): 4% | Percent of cells at G0–G1 ([1]; compound conc. 10000 nM): 5% | Percent of cells at G2/M ([1]; compound conc. 10000 nM): 90% | Percent of cells at S phase ([1]; compound conc. 10000 nM): 5% | tumor growth inhibition [2]: 72% | effect on cell proliferation in K562 cells ([3]; 24 hours treatment): concentration-dependent decrease of cell proliferation | IC50 ([3]; Homo sapiens, K562, 24 hours treatment, read-out: IC50 on K562 cell proliferation): ~0.01 µM | colony formation inhibition with versus without radiation, MDAH2774 ([4]; 5.4 Gy, compound 1 to 100 nM): the inhibitory effect was greater with radiation | concentration from which marked inhibitory activity against colony formation was shown, MDAH2774 ([4]; in the presence or absence of radiation (5.4 Gy)): ≥ 30 nM | No. of MDAH2774 Clones (average of three plates) ([4]; w/Radiation (5.4 Gy), 1000 cells initially plated, compound 1 nM): 121 | No. of MDAH2774 Clones (average of three plates) ([4]; w/Radiation (5.4 Gy), 1000 cells initially plated, compound 3 nM): 125 | No. of MDAH2774 Clones (average of three plates) ([4]; w/Radiation (5.4 Gy), 1000 cells initially plated, compound 10 nM): 121 | No. of MDAH2774 Clones (average of three plates) ([4]; w/Radiation (5.4 Gy), 1000 cells initially plated, compound 30 nM): 8 | No. of MDAH2774 Clones (average of three plates) ([4]; w/Radiation (5.4 Gy), 1000 cells initially plated, compound 100 nM): 3 | No. of MDAH2774 Clones (average of three plates) ([4]; w/o Radiation, 200 cells initially plated, compound 1 nM): 98 | No. of MDAH2774 Clones (average of three plates) ([4]; w/o Radiation, 200 cells initially plated, compound 3 nM): 96 | No. of MDAH2774 Clones (average of three plates) ([4]; w/o Radiation, 200 cells initially plated, compound 10 nM): 110 | No. of MDAH2774 Clones (average of three plates) ([4]; w/o Radiation, 200 cells initially plated, compound 30 nM): 35 | No. of MDAH2774 Clones (average of three plates) ([4]; w/o Radiation, 200 cells initially plated, compound 100 nM): 8

COc1cc2c(cc1OC)-c1c(c(Nc3cccc(F)c3)nn1C(=O)CO)C2 [Compound 432, 1-[3-(3-Fluoro-phenylamino)-6,7-dimethoxy-4H-indeno[1,2-c]pyrazol-1-yl]-2-hydroxy-ethanone]
concentration at 0.5 h [5]: 0.08 µM
